Assay results from PubChem BioAssay AID256 (DTP/NCI, 2004).
Several values for one entry are separate records, joined by “and”; a condition that tells them apart may be missing. Equal entries are not always repeated. Inconclusive results and toxic doses are left out. How the source made its calls: active means survival T/C of 150% or more; inactive means T/C below 125% in these data.

System: CD2F1 mice, L1210 leukemia ip, survival T/C
Test: NCI In Vivo Anticancer Drug Screen. Data for tumor model L1210 Leukemia (intraperitoneal) in CD2F1 (CDF1) mice
Details: higher = longer survival
In short: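 Implant tumor; dose compound or vehicle; measure endpoint in both groups; report treated divided by control.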

[1] = endpoint: mean survival time, dose: 50.0 mg/kg/injection, schedule: Q01DX009 (ip), vehicle: saline with Tween-80
[2] = endpoint: mean survival time, dose: 100.0 mg/kg/injection, schedule: Q01DX009 (ip), vehicle: saline with Tween-80
[3] = endpoint: mean survival time, dose: 200.0 mg/kg/injection, schedule: Q01DX009 (ip), vehicle: saline with Tween-80
[4] = endpoint: mean survival time, dose: 400.0 mg/kg/injection, schedule: Q01DX009 (ip), vehicle: saline with Tween-80
[5] = endpoint: mean survival time, dose: 100.0 mg/kg/injection, schedule: Q04DX003 (ip), vehicle: saline with Tween-80
[6] = endpoint: mean survival time, dose: 200.0 mg/kg/injection, schedule: Q04DX003 (ip), vehicle: saline with Tween-80
[7] = endpoint: mean survival time, dose: 400.0 mg/kg/injection, schedule: Q04DX003 (ip), vehicle: saline with Tween-80
[8] = endpoint: mean survival time, dose: 100.0 mg/kg/injection, schedule: Q01DX001 (ip), vehicle: saline with Tween-80
[9] = endpoint: mean survival time, dose: 200.0 mg/kg/injection, schedule: Q01DX001 (ip), vehicle: saline with Tween-80
[10] = endpoint: mean survival time, dose: 100.0 mg/kg/injection, schedule: Q04DX003 (ip), vehicle: saline
[11] = endpoint: mean survival time, dose: 100.0 mg/kg/injection, schedule: Q01DX001 (ip), vehicle: saline
[12] = endpoint: mean survival time, dose: 200.0 mg/kg/injection, schedule: Q01DX001 (ip), vehicle: saline
[13] = endpoint: mean survival time, dose: 400.0 mg/kg/injection, schedule: Q01DX001 (ip), vehicle: saline

Measured: T/C

O=C1NC(=O)C2(CCN(Cc3ccccc3)CC2)C(=O)N1
inactive: endpoint: mean survival time, dose: 75.0 mg/kg/injection, schedule: Q01DX001 (ip), vehicle: saline 96 % of control | endpoint: mean survival time, dose: 150.0 mg/kg/injection, schedule: Q01DX001 (ip), vehicle: saline 98 % of control | endpoint: mean survival time, dose: 300.0 mg/kg/injection, schedule: Q01DX001 (ip), vehicle: saline 96 % of control

NC(=S)N/N=C\c1ncccc1OCc1cccc(N)c1
inactive: endpoint: mean survival time, dose: 12.5 mg/kg/injection, schedule: Q01DX009 (ip), vehicle: distilled water + Tween-80 104 % of control | endpoint: mean survival time, dose: 12.5 mg/kg/injection, schedule: Q01DX009 (ip), vehicle: saline with Tween-80 100 % of control | endpoint: mean survival time, dose: 25.0 mg/kg/injection, schedule: Q01DX009 (ip), vehicle: distilled water + Tween-80 113 % of control and 104 % of control | endpoint: mean survival time, dose: 25.0 mg/kg/injection, schedule: Q01DX009 (ip), vehicle: saline with Tween-80 116 % of control and 100 % of control and 107 % of control | endpoint: mean survival time, dose: 50.0 mg/kg/injection, schedule: Q01DX009 (ip), vehicle: distilled water + Tween-80 119 % of control and 111 % of control | [1] 101 % of control and 103 % of control and 110 % of control | endpoint: mean survival time, dose: 100.0 mg/kg/injection, schedule: Q01DX009 (ip), vehicle: distilled water + Tween-80 113 % of control and 119 % of control | [2] 117 % of control and 100 % of control and 105 % of control | endpoint: mean survival time, dose: 200.0 mg/kg/injection, schedule: Q01DX009 (ip), vehicle: distilled water + Tween-80 122 % of control | [3] 114 % of control and 117 % of control and 108 % of control | endpoint: mean survival time, dose: 400.0 mg/kg/injection, schedule: Q01DX009 (ip), vehicle: distilled water + Tween-80 117 % of control | [4] 115 % of control and 108 % of control | endpoint: median survival time, dose: 50.0 mg/kg/injection, schedule: Q01DX009 (ip), vehicle: distilled water + Tween-80 109 % of control | endpoint: median survival time, dose: 100.0 mg/kg/injection, schedule: Q01DX009 (ip), vehicle: distilled water + Tween-80 115 % of control | endpoint: median survival time, dose: 200.0 mg/kg/injection, schedule: Q01DX009 (ip), vehicle: distilled water + Tween-80 118 % of control | endpoint: median survival time, dose: 400.0 mg/kg/injection, schedule: Q01DX009 (ip), vehicle: distilled water + Tween-80 124 % of control

CC(C)c1ccc(C(=O)CCCCl)cc1
inactive: [2] 98 % of control | [3] 97 % of control | [4] 97 % of control

CC1=C(N)C(=O)N(C)C1=O
inactive: endpoint: mean survival time, dose: 25.0 mg/kg/injection, schedule: Q04DX002 (ip), vehicle: saline with Tween-80 98 % of control | endpoint: mean survival time, dose: 50.0 mg/kg/injection, schedule: Q04DX002 (ip), vehicle: saline with Tween-80 95 % of control | endpoint: mean survival time, dose: 100.0 mg/kg/injection, schedule: Q04DX002 (ip), vehicle: saline with Tween-80 98 % of control | endpoint: mean survival time, dose: 200.0 mg/kg/injection, schedule: Q04DX002 (ip), vehicle: saline with Tween-80 98 % of control

CC(=O)OCC1(OC2OC(CNC(=O)N(C)N=O)C(OC(C)=O)C(OC(C)=O)C2OC(C)=O)OC(CNC(=O)N(C)N=O)C(OC(C)=O)C1OC(C)=O (stereo not given)
inactive: endpoint: mean survival time, dose: 12.5 mg/kg/injection, schedule: Q01DX009 (ip), vehicle: other 102 % of control | endpoint: mean survival time, dose: 25.0 mg/kg/injection, schedule: Q01DX009 (ip), vehicle: other 102 % of control | endpoint: mean survival time, dose: 50.0 mg/kg/injection, schedule: Q01DX009 (ip), vehicle: other 109 % of control | endpoint: mean survival time, dose: 100.0 mg/kg/injection, schedule: Q01DX009 (ip), vehicle: other 105 % of control | endpoint: mean survival time, dose: 200.0 mg/kg/injection, schedule: Q01DX009 (ip), vehicle: other 119 % of control

CC(=O)OC1CCCCC1OC(C)=O (stereo not given)
inactive: [1] 92 % of control | [2] 92 % of control | [3] 103 % of control

[Au].[NH-]CC[NH-].[NH-]CC[NH-]
inactive: endpoint: mean survival time, dose: 6.25 mg/kg/injection, schedule: Q01DX001 (ip), vehicle: water 89 % of control | endpoint: mean survival time, dose: 6.25 mg/kg/injection, schedule: Q04DX003 (ip), vehicle: water 98 % of control | endpoint: mean survival time, dose: 12.5 mg/kg/injection, schedule: Q01DX001 (ip), vehicle: water 94 % of control | endpoint: mean survival time, dose: 12.5 mg/kg/injection, schedule: Q04DX003 (ip), vehicle: water 89 % of control | endpoint: mean survival time, dose: 25.0 mg/kg/injection, schedule: Q01DX001 (ip), vehicle: water 101 % of control

CN(C=O)c1ccc(C(=O)NC(CCC(=O)OCc2ccccc2)C(=O)OCc2ccccc2)cc1 (stereo not given)
inactive: [2] 94 % of control | [5] 105 % of control | [3] 89 % of control | [6] 92 % of control | [4] 89 % of control | [7] 89 % of control

OCc1ccn2c1CCC2
inactive: endpoint: mean survival time, dose: 12.5 mg/kg/injection, schedule: Q01DX009 (ip), vehicle: Klucel (hydroxypropylcellulose) (HPC) 101 % of control | endpoint: mean survival time, dose: 50.0 mg/kg/injection, schedule: Q01DX009 (ip), vehicle: Klucel (hydroxypropylcellulose) (HPC) 100 % of control | endpoint: mean survival time, dose: 100.0 mg/kg/injection, schedule: Q01DX009 (ip), vehicle: Klucel (hydroxypropylcellulose) (HPC) 101 % of control

c1cc2c(c(N3CCNCC3)c1)CCCC2
inactive: [8] 110 % of control | [9] 95 % of control

COC(=O)c1cc(N(CCCl)CCCl)ccc1N=Nc1ccc([N+](=O)[O-])cc1
inactive: endpoint: mean survival time, dose: 100.0 mg/kg/injection, schedule: Q04DX003 (ip), vehicle: Klucel (hydroxypropylcellulose) (HPC) 109 % of control | endpoint: mean survival time, dose: 200.0 mg/kg/injection, schedule: Q04DX003 (ip), vehicle: Klucel (hydroxypropylcellulose) (HPC) 115 % of control | endpoint: mean survival time, dose: 400.0 mg/kg/injection, schedule: Q04DX003 (ip), vehicle: Klucel (hydroxypropylcellulose) (HPC) 117 % of control

Clc1nc(Cl)c(Nc2ccn[nH]2)nc1Cl
inactive: endpoint: mean survival time, dose: 100.0 mg/kg/injection, schedule: Q04DX003 (ip), vehicle: saline sonified 100 % of control | endpoint: mean survival time, dose: 200.0 mg/kg/injection, schedule: Q04DX003 (ip), vehicle: saline sonified 98 % of control | endpoint: mean survival time, dose: 400.0 mg/kg/injection, schedule: Q04DX003 (ip), vehicle: saline sonified 95 % of control

CCCCC(NC(=O)C(C)NC(=O)OCc1ccccc1)C(=O)O (stereo not given)
inactive: [5] 98 % of control | [6] 101 % of control | [7] 98 % of control

COC(=O)/C(Br)=C/C(C)=O
inactive: [8] 107 % of control | [9] 95 % of control

NC(=O)C1(Cl)CC2C=CC1C2 (stereo not given)
inactive: [10] 94 % of control

Nc1c([N+](=O)[O-])ccc2ccccc12
inactive: [2] 95 % of control | [5] 93 % of control | [3] 93 % of control | [6] 93 % of control | [4] 92 % of control | [7] 92 % of control

COC(=O)N/N=C/Cc1ccccc1
inactive: [2] 93 % of control

CN1C(CC(O)(c2ccccc2)c2ccccc2)CCCC1CC(O)(c1ccccc1)c1ccccc1 (stereo not given)
inactive: [8] 91 % of control | [9] 96 % of control | endpoint: mean survival time, dose: 400.0 mg/kg/injection, schedule: Q01DX001 (ip), vehicle: saline with Tween-80 91 % of control

COc1ccc2c(c1)C1(C)CCCC(C#N)=C1CC2 (stereo not given)
inactive: [11] 96 % of control | [12] 96 % of control | [13] 92 % of control

O=C(NNCN1C(=O)c2ccccc2C1=O)c1ccccc1
inactive: [11] 98 % of control | [10] 100 % of control | [12] 104 % of control | endpoint: mean survival time, dose: 200.0 mg/kg/injection, schedule: Q04DX003 (ip), vehicle: saline 100 % of control | [13] 100 % of control | endpoint: mean survival time, dose: 400.0 mg/kg/injection, schedule: Q04DX003 (ip), vehicle: saline 103 % of control

CC(=O)Nc1ccc([N+](=O)[O-])c2ccccc12
inactive: endpoint: mean survival time, dose: 37.5 mg/kg/injection, schedule: Q04DX002 (ip), vehicle: saline with Tween-80 101 % of control | endpoint: mean survival time, dose: 75.0 mg/kg/injection, schedule: Q04DX002 (ip), vehicle: saline with Tween-80 101 % of control | endpoint: mean survival time, dose: 150.0 mg/kg/injection, schedule: Q04DX002 (ip), vehicle: saline with Tween-80 104 % of control

O=C(c1ccccc1)N1CC2CC3OC3c3cccc1c32 (stereo not given)
inactive: [1] 102 % of control | [2] 98 % of control | [3] 94 % of control

NC(=O)Cc1ccccc1[N+](=O)[O-]
inactive: endpoint: mean survival time, dose: 50.0 mg/kg/injection, schedule: Q01DX001 (ip), vehicle: saline with Tween-80 95 % of control | [8] 104 % of control | [9] 106 % of control

CC(C)(SC(c1ccccc1)(c1ccccc1)c1ccccc1)C(N)C(=O)O (stereo not given)
inactive: endpoint: mean survival time, dose: 25.0 mg/kg/injection, schedule: Q01DX009 (ip), vehicle: saline 106 % of control | endpoint: mean survival time, dose: 50.0 mg/kg/injection, schedule: Q01DX009 (ip), vehicle: saline 103 % of control

Cc1ccn(C)c(=O)c1
inactive: endpoint: mean survival time, dose: 100.0 mg/kg/injection, schedule: Q01DX009 (ip), vehicle: saline 103 % of control | endpoint: mean survival time, dose: 200.0 mg/kg/injection, schedule: Q01DX009 (ip), vehicle: saline 104 % of control | endpoint: mean survival time, dose: 400.0 mg/kg/injection, schedule: Q01DX009 (ip), vehicle: saline 101 % of control
